Assay results as given in patent publication US20260345621A1, “GABAA RECEPTOR MODULATORS AND USES THEREOF” (Engrail Therapeutics, Inc., priority 2022, published 2026).
“Also recorded” adds a separate entry of the source. Where two headings read alike, the source gives them in different places.

Columns and labels:
[1] = system: EEG spectral bands; assay: Pharmaco-EEG spectral analysis in wirelessly implanted rats
[2] = target: human GABAA receptor α5/β3/γ2 (Homo sapiens, UniProt P18507+P31644); assay: SyncroPatch platform, PAM mode, GABAA α5/β3/γ2
Sequence of human GABAA receptor α5/β3/γ2 (P31644 32-462): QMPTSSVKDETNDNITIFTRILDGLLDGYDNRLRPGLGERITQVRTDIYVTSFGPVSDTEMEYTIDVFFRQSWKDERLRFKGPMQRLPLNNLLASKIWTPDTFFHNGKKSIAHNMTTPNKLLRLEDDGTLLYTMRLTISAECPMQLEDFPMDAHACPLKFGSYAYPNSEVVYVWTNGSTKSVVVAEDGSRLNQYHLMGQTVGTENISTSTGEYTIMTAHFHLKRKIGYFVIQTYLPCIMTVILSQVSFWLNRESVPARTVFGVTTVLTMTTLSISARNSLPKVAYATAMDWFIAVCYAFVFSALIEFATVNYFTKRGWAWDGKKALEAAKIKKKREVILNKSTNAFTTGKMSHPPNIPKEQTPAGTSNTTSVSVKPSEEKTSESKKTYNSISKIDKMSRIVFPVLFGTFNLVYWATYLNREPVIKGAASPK
Sequence of human GABAA receptor α5/β3/γ2 (P18507 40-475): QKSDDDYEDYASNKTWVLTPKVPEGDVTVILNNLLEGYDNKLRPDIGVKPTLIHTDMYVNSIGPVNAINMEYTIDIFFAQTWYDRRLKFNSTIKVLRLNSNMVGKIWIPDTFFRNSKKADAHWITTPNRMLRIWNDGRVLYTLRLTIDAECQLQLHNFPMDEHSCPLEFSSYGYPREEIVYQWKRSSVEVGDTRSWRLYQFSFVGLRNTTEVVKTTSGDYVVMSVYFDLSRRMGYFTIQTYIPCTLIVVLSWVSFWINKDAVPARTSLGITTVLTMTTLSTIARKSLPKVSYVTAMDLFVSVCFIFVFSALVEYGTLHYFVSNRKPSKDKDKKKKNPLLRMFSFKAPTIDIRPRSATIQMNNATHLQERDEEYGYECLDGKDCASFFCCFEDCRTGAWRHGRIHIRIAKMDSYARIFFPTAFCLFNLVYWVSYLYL
Sequence of human GABAA receptor α5/β3/γ2 (P28472 26-473 partner): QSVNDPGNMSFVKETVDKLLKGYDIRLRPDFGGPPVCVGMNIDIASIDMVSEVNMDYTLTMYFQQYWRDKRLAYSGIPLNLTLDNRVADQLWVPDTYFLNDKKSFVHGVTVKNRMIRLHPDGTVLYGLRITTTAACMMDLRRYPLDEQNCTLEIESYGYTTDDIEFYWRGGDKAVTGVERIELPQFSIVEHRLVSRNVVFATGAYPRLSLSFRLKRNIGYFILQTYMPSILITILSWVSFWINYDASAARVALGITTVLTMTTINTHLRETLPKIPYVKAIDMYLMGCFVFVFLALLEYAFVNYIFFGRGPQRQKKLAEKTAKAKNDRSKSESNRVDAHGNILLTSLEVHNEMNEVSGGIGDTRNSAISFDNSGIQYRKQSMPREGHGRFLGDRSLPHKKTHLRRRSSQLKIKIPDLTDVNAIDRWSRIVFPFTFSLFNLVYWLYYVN

[3] = system: sleep stages; assay: Sleep-stage analysis in wirelessly implanted rats; conditions: Lorazepam 1 mg/kg IP
[4] = target: human GABAA receptor α2/β2/γ2 (Homo sapiens, UniProt P18507+P47869); assay: SyncroPatch platform, PAM mode, GABAA α2/β2/γ2
Sequence of human GABAA receptor α2/β2/γ2 (P47869 29-451): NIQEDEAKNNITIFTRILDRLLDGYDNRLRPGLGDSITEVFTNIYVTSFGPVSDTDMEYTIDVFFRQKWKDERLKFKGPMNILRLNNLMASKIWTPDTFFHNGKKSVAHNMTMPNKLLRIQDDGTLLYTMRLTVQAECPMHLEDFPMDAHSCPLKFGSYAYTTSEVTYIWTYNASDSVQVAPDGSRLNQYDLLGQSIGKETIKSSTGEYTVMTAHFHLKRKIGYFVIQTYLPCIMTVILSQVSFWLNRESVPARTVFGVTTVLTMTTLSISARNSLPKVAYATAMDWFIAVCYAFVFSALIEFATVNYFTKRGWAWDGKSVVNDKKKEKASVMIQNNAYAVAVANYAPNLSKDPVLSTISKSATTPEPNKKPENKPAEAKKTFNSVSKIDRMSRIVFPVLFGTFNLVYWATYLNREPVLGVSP
Sequence of human GABAA receptor α2/β2/γ2 (P18507 40-475): as the sequence (P18507 40-475) above
Sequence of human GABAA receptor α2/β2/γ2 (P47870 25-512 partner limits assumed): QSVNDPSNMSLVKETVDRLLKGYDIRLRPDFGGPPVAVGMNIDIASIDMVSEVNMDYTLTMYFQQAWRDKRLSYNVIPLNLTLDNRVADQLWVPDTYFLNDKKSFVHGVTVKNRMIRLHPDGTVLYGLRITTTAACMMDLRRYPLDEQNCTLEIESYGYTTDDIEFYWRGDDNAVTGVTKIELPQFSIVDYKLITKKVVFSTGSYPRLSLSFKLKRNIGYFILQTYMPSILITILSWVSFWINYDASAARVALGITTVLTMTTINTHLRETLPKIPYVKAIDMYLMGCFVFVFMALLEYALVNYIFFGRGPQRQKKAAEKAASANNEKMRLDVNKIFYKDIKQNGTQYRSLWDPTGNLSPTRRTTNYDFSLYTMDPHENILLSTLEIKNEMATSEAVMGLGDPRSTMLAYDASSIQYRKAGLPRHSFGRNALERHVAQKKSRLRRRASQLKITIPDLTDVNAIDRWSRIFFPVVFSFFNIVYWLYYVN

[5] = Multiple ascending dose study, plasma pharmacokinetics; type: in vivo, human (healthy volunteers); conditions: for AUC(0-t) at 24 h / Cmax at 24 h / AUC tau / Cmax at 288 h: human, plasma, po, 0.5 mg
Protocol: A clinical study was developed to evaluate safety, tolerability, pharmacokinetics, and pharmacodynamics of Compound 1 at plasma steady-state in 40 healthy human volunteers. Compound 1 (provided as Compound 1 phosphate) was administered to participants as multiple ascending doses of 0.5 mg (N=6), 1.0 mg (N=6), 1.5 mg (N=6), 2.0 mg (N=6), or 5.0 mg (N=6) once daily (QD) for 12 days.
Blood samples were collected, and plasma concentrations were measured using a validated high performance liquid chromatography/liquid chromatography-mass spectrometry/mass spectrometry method. The PK parameters assessed included Cmax, Tmax, AUC from administration to the end of dosing (AUC0-t), AUC0-24, AUC0-inf, t1/2, terminal rate constant (λz), apparent total clearance of the drug from plasma (CL/F), and apparent volume of distribution during terminal phase after non-intravenous administration (Vz/F).
The plasma concentration data for Compound 1 were summarized by dose level and the planned sampling time points using descriptive statistics (n, SD, median, minimum, maximum, geometric mean, and coefficient of variance (CV %) for the geometric mean) for the PK Analysis Set.
Specifically, samples for PK analyses were taken on Day 1 and Day 12 pre-dose, 0.5, 1, 1.5, 3, 6, 8, 10, and 12 h post-dose, with additional samples taken on every dosing Day (24 hours after the previous day's dose) and 24, 72, 168, and 336 h after last dosing on Day 12. All individual Compound 1 concentrations were above the LLOQ of 0.0500 ng/mL at 0.5 h post-dose, except for 1 participant, for whom the concentration was above the LLOQ at 1 h post-dose.

[6] = Frontal-Parietal cortex, Quiet Wake
[7] = 0.5 mg oral QD, Day 1, 1440 min
[8] = 1.0 mg oral QD, Day 1, 1440 min
[9] = 1.5 mg oral QD, Day 1, 1440 min
[10] = 2.0 mg oral QD, Day 1, 1440 min

With CC(C)(O)c1cnn2c(-c3ccc(F)c(-c4c(F)cccc4C#N)c3)cnc2n1 [Compound 1, 2′,6-difluoro-5′-(3-(2-hydroxypropan-2-yl)imidazo[1,2-b][1,2,4]triazin-7-yl)-[1,1′-biphenyl]-2-carbonitrile] the “EEG spectral power change” value ([1]; Frontal-Frontal cortex, Active and Quiet Wake) was “increased beta, low and high gamma”, the “EEG spectral power change” value ([1]; Frontal-Frontal cortex, NREM) was “decreased theta and alpha; also recorded: decreased delta and increased low and high gamma” and the “duration of EEG effects” value ([1]; Frontal-Frontal cortex, NREM, Compound 1 high dose PO, Lorazepam 1 mg/kg IP) was 48 h. The “EEG spectral power change” value ([1]; Frontal-Frontal cortex, REM) was “increased beta”, the “EEG spectral power change” value ([1]; Frontal-Parietal cortex, Active Wake) was “decreased alpha but increased beta, low and high gamma” and the “EEG spectral power change” value ([1]; Frontal-Parietal cortex, NREM) was “decreased delta, theta, and alpha; also recorded: increase in low and high gamma”. The “duration of delta and theta effects” value ([1]; Frontal-Parietal cortex, NREM) was 48 h, the “duration of increase in low and high gamma” value ([1]; Frontal-Parietal cortex, NREM) was 48 h and the “EEG spectral power change” value [1, 6] was “decreased delta but increased beta, low and high gamma”. The “duration of EEG effects” value [1, 6] was 48 h, the “EEG spectral power change” value ([1]; Frontal-Parietal cortex, REM) was “decreased theta and alpha but increased beta and low gamma” and the “decrease in delta/theta power” value ([1]; Non-REM sleep) was 40%. The “delta and theta power” value ([1]; Non-REM sleep, all doses, ANOVA w Dunnett's) was “significant decreases in delta and theta power across all doses”, the EEG profile ([1]; oral dosing, rats) was “EEG changes indicative of an anxiolytic profile” and the “sedation / anxiolytic profile” value ([1]; sleep-wake pattern and EEG profile analysis) was “non-sedative anxiolytic profile”. The “EEG spectral power change” value ([1]; summary, Active Wake) was “increased low gamma and decreased alpha (Parietal ctx)”, the “EEG spectral power change” value ([1]; summary, Non-REM) was “suppressed power in low frequencies (Delta, Theta, and Alpha) and increased higher frequencies (gamma)” and the “EEG spectral power change” value ([1]; summary, Quiet Wake) was “increased beta and low gamma”. The “EEG spectral power change” value ([1]; summary, REM) was “increased beta”, the EC50 [2] was 0.2 nM and the Emax [2] was 96%. For the same compound, the NREM onset ([3]; Compound 1 1 mg/kg PO) was “did not change NREM onset; also recorded: does not decrease time to Non-REM onset”, the “Active Wake” value ([3]; Compound 1 PO) was “decreased Active Wake” and the NREM ([3]; Compound 1 PO) was “increased NREM”. For the same compound, the “Quiet Wake” value ([3]; Compound 1 PO) was “only Compound 1 decreased Quiet Wake”, the EC50 [4] was 0.8 nM and the Emax [4] was 50%. For the same compound, the “AUC0-24 (mean)” value [5, 7] was 52.56 ng·h/mL, the “Cmax (mean)” value [5, 7] was 4.615 ng/mL and the “AUCtau (mean)” value ([5]; 0.5 mg oral QD, Day 12) was 197.54 ng·h/mL. The “t1/2 (mean)” value ([5]; 0.5 mg oral QD, Day 12) was 65.610 h, the “Cmax (mean)” value ([5]; 0.5 mg oral QD, Day 12, 17280 min) was 11.660 ng/mL and the “AUC0-24 (mean)” value [5, 8] was 117.81 ng·h/mL. For the same compound, the “Cmax (mean)” value [5, 8] was 8.497 ng/mL, the “AUCtau (mean)” value ([5]; 1.0 mg oral QD, Day 12) was 410.07 ng·h/mL and the “t1/2 (mean)” value ([5]; 1.0 mg oral QD, Day 12) was 60.876 h. For the same compound, the “Cmax (mean)” value ([5]; 1.0 mg oral QD, Day 12, 17280 min) was 23.333 ng/mL, the “AUC0-24 (mean)” value [5, 9] was 216.99 ng·h/mL and the “Cmax (mean)” value [5, 9] was 18.833 ng/mL. For the same compound, the “AUCtau (mean)” value ([5]; 1.5 mg oral QD, Day 12) was 705.65 ng·h/mL, the “t1/2 (mean)” value ([5]; 1.5 mg oral QD, Day 12) was 50.526 h and the “AUC0-24 (mean)” value [5, 10] was 243.73 ng·h/mL. The “Cmax (mean)” value [5, 10] was 19.633 ng/mL, the “AUCtau (mean)” value ([5]; 2.0 mg oral QD, Day 12) was 873.17 ng·h/mL and the “t1/2 (mean)” value ([5]; 2.0 mg oral QD, Day 12) was 61.167 h. The “Cmax (mean)” value ([5]; 2.0 mg oral QD, Day 12, 17280 min) was 49.817 ng/mL, the “AUC0-24 (mean)” value ([5]; 5.0 mg oral QD, Day 1, 1440 min) was 641.92 ng·h/mL and the “t1/2 (mean)” value ([5]; 5.0 mg oral QD, Day 12) was 38.695 h. The “trend of t1/2 or λz with increasing dose” value ([5]; 0.5-5.0 mg oral QD) was “no trend towards change in t1/2 or λz with increasing dose”, the “dose proportionality of exposure” value ([5]; Cmax and AUC, 0.5-5.0 mg oral QD) was “generally increased dose- and concentration-proportionally; also recorded: Dose-proportional PK were confirmed over the investigated dose range” and the “median time of the last quantifiable concentration” value ([5]; all cohorts, Day 1) was “approximately 24 h”. The “linearity of dose normalized Cmax and AUC0-24” value ([5]; arguable exception 1.5 mg) was “consistent with linear kinetics”, the AUC(0-t) at 24 h ([5]; 0.5 mg oral QD, Day 1, read-out: AUC0-24 (mean)) was 53 ± 7 ng·h/mL and the AUC(0-t) at 24 h ([5]; 0.5 mg oral QD, Day 1, read-out: AUC0-24 (median)) was 54.8 ng·h/mL. The Cmax at 24 h ([5]; 0.5 mg oral QD, Day 1, read-out: Cmax (mean)) was 4.6 ± 2 ng/mL, the Cmax at 24 h ([5]; 0.5 mg oral QD, Day 1, read-out: Cmax (median)) was 4.58 ng/mL and the AUC tau ([5]; 0.5 mg oral QD, Day 12, read-out: AUCtau (mean)) was 198 ± 51 ng·h/mL. It also gave an AUC tau ([5]; 0.5 mg oral QD, Day 12, read-out: AUCtau (median)) of 201 ng·h/mL, a Cmax at 288 h ([5]; 0.5 mg oral QD, Day 12, read-out: Cmax (mean)) of 11.7 ± 4 ng/mL and a Cmax at 288 h ([5]; 0.5 mg oral QD, Day 12, read-out: Cmax (median)) of 11.6 ng/mL.
